According to ChEMBL document CHEMBL3352821, “Cyclic Hexapeptides from the Deep South China Sea-Derived Streptomyces scopuliridis SCSIO ZJ46 Active Against Pathogenic Gram-Positive Bacteria” (J Nat Prod, 2014):
In brackets after ≈: the same amount, converted by molar mass. Non-standard residues stand in square brackets, D forms with d. Residues, ends and D or L forms follow the SMILES beside them. aIle = CC[C@@H](C)[C@H](N)C(=O)O

Legend:
Klebsiella pneumoniae = assay: Antimicrobial activity against Klebsiella pneumoniae ATCC 13883 by serial dilution/CLSI method; assay type: functional
[1] = system: Staphylococcus epidermidis; assay: Antimicrobial activity against methicillin-resistant Staphylococcus epidermidis shhs-E1 clinical isolate by serial dilution/CLSI method; assay type: functional
HepG2 = assay: Cytotoxicity against human HepG2 cells after 72 hrs by SRB assay; assay type: functional, cell-based; conditions: HepG2, 72 h
MCF7 = assay: Cytotoxicity against human MCF7 cells after 72 hrs by SRB assay; assay type: functional, cell-based; conditions: MCF7, 72 h
Staphylococcus aureus [2] = assay: Antimicrobial activity against methicillin-resistant Staphylococcus aureus shhs-A1 clinical isolate by serial dilution/CLSI method; assay type: functional
Staphylococcus aureus [3] = assay: Antimicrobial activity against Staphylococcus aureus ATCC 29213 by serial dilution/CLSI method; assay type: functional
Streptococcus pneumoniae = assay: Antimicrobial activity against Streptococcus pneumoniae NCTC 7466 by serial dilution/CLSI method; assay type: functional
NCI-H460 = assay: Cytotoxicity against human NCI-H460 after 72 hrs by SRB assay; assay type: functional, cell-based; conditions: NCI-H460, 72 h
SF-268 = assay: Cytotoxicity against human SF268 cells after 72 hrs by SRB assay; assay type: functional, cell-based; conditions: SF-268, 72 h

Compound	MIC (Klebsiella pneumoniae)	MIC [1]	IC50 (HepG2)	IC50 (MCF7)	MIC (Staphylococcus aureus [2])	MIC (Staphylococcus aureus [3])	MIC (Streptococcus pneumoniae)	IC50 (NCI-H460)	IC50 (SF-268)
CC(C)C[C@@H]1NC(=O)[C@H](Cc2c[nH]c3ccccc23)NC(=O)CNC(=O)[C@H](CC(N)=O)NC(=O)[C@H](C(C)C)NC(=O)[C@@H](CC(C)C)NC1=O	> 128 µg/mL	32 µg/mL (≈ 46.9 µM)	> 100 µM	> 100 µM	> 128 µg/mL	16 µg/mL (≈ 23.4 µM)	12.5 µg/mL (≈ 18.3 µM)	> 100 µM	> 100 µM
CC[C@@H](C)[C@@H]1NC(=O)[C@@H](CC(C)C)NC(=O)[C@H](CC(C)C)NC(=O)[C@H](CC(=O)c2ccccc2NC=O)NC(=O)CNC(=O)[C@H](CC(N)=O)NC1=O	> 128 µg/mL	> 128 µg/mL	> 100 µM	> 100 µM	> 128 µg/mL	> 128 µg/mL	> 100 µg/mL	> 100 µM	> 100 µM
CC[C@@H](C)[C@@H]1NC(=O)[C@@H](CC(C)C)NC(=O)[C@H](CC(C)C)NC(=O)[C@H](CC(=O)c2ccccc2N)NC(=O)CNC(=O)[C@H](CC(N)=O)NC1=O	> 128 µg/mL	> 128 µg/mL	> 100 µM	> 100 µM	> 128 µg/mL	> 128 µg/mL	> 100 µg/mL	> 100 µM	> 100 µM
CC[C@@H](C)[C@@H]1NC(=O)[C@@H](CC(C)C)NC(=O)[C@H](CC(C)C)NC(=O)[C@H](Cc2c[nH]c3ccccc23)NC(=O)CNC(=O)[C@H](CC(N)=O)NC1=O [DESOTAMIDE] (cyclo(GWL[dL][aIle]N))	> 128 µg/mL	32 µg/mL (≈ 45.9 µM)	> 100 µM	> 100 µM	> 128 µg/mL	16 µg/mL (≈ 23 µM)	12.5 µg/mL (≈ 17.9 µM)	> 100 µM	> 100 µM
CN[C@H](CC(C)C)C(=O)N[C@H]1C(=O)N[C@@H](CC(N)=O)C(=O)N[C@H]2C(=O)N[C@H]3C(=O)N[C@H](C(=O)N[C@H](C(=O)O)c4cc(O)cc(O)c4-c4cc3ccc4O)[C@H](O)c3ccc(c(Cl)c3)Oc3cc2cc(c3O[C@@H]2O[C@H](CO)[C@@H](O)[C@H](O)[C@H]2O[C@H]2C[C@](C)(N)[C@H](O)[C@H](C)O2)Oc2ccc(cc2Cl)[C@H]1O [VANCOMYCIN]	> 128 µg/mL						0.37 µg/mL (≈ 0.255 µM)		
